“Also recorded” adds a separate entry of the source. Read-outs that look alike come from different tables or passages of the source. Marks after values point to notes of the source that are not given here.
Experiments:
[1] = tested on: G93A SOD1 B6SJL hybrid (G93A) model; experiment: Disease progression score (JAX SOP) in G93A SOD1 transgenic mice
From the text: The disease progression score is based on the JAX SOP (Ludolph A C, Bendotti C, Blaugrund E, Hengerer B, Loffler J P, Martin J, Meininger V, Meyer T, Moussaoui S, Robberecht W, Scott S, Silani V, Van Den Berg L H (ENMC Group For The Establishment Of Guidelines For The Conduct Of Preclinical And Proof Of Concept Studies In ALS/MND Models). 2007, which is incorporated by reference).

[2] = tested on: G93A SOD1 B6SJL hybrid (G93A) model;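 on HR (hazard ratio) survival vs placebo, FIG. 2: dosing began after ALS onset in G93A SOD1 mice, with survival as the endpoint, defined humanely as the animal failing to regain upright posture within 30 s when placed sideways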;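 on percent survival, comparison in words (FIGS. 2-4): dosing began after ALS onset in G93A SOD1 mice, with survival as the endpoint, defined humanely as the animal failing to regain upright posture within 30 s when placed sideways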
From the text: To study the effect of S-oxprenolol on survival, survival was monitored over time.

[3] = tested on: G93A SOD1 B6SJL hybrid (G93A) model; experiment: Body weight and body composition (lean mass, fat mass; NMR scans) in G93A SOD1 transgenic mice; format: in vivo; conditions: for Average Δ body weight / Average Δ fat mass / Average Δ lean mass: per day alive after disease onset
From the text: (§1) Transgenic mice over-expressing a high copy number (25 copies) of mutated human SOD1 gene with a G93A point mutation, i.e., B6SJL-TgN [SOD1-G93A]1 Gur (G1H-G93A transgenic mice, JR2726; Hemizygote) (Gurney M E, et al., Science, 264, 1772-1775, 1994) (“G93A SOD1 B6SJL hybrid (G93A) model”), were used.
[…] […] There were 16 mice in the S-oxprenolol group.
The primary endpoint was survival, humanely defined as the ability of the animal to right itself in 30 seconds after being laid on its side. Secondary endpoints were body weight, body composition, spontaneous activity and food intake. Body weight of the animals was assessed weekly until onset of disease. Additionally, body composition (fat mass and lean body mass) was assessed using NMR scans (EchoMRI-100, Echo Medical Systems, Houston, USA) every 4 days. After onset of disease, body weight and body composition were assessed every two days until the end of the study. All personal handling the animals was strictly blinded to the randomized treatment allocation.
To study the effect of S-oxprenolol on body weight, body weight was monitored over time.
To study the effect of the test compounds on lean body mass, lean mass was determined at the end of the study.
To study the effect of the test compounds on fat mass, the fat mass were determined at the end of the study.
To study the effect of S-oxprenolol on body weight, body weight was monitored over time. […] The number of all mice in the population is indicated as “n” in at the bottom of FIGS. 20A-20C.
To study the effect of the test compounds on lean body mass, lean mass was determined at the end of the study. […] The number of all mice in the population is indicated as “n” in at the bottom of FIGS. 20D-20F.
To study the effect of the test compounds on fat mass, the fat mass were determined at the end of the study. […] The number of all mice in the population is indicated as “n” in at the bottom of FIGS. 20G-20I.

[4] = tested on: G93A SOD1 B6SJL hybrid (G93A) model; conditions: for Heart / gastrocnemius: end of study;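 on HR (hazard ratio) survival vs placebo, FIG. 2: dosing began after ALS onset in G93A SOD1 mice, with survival as the endpoint, defined humanely as the animal failing to regain upright posture within 30 s when placed sideways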;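 on percent survival, comparison in words (FIGS. 2-4): dosing began after ALS onset in G93A SOD1 mice, with survival as the endpoint, defined humanely as the animal failing to regain upright posture within 30 s when placed sideways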
Procedure: as §1
To study the effect of the test compounds on skeletal muscle atrophy, the skeletal muscle mass were determined at the end of the study.
The number of all mice in the population is indicated as “n” in at the bottom of FIGS. 21A-21C.
The number of all mice in the population is indicated as “n” in at the bottom of FIGS. 20D-20F.
The number of all mice in the population is indicated as “n” in at the bottom of FIGS. 21G-21I.

[5] = 20 mg/kg/day vs. S-Oxprenolol (20)
[6] = 10 mg/kg/day, S-pindolol 3 mg/kg/day

C=CCOc1ccccc1OC[C@@H](O)CNC(C)C [S-oxprenolol, (S)-1-(2-(allyloxy)phenoxy)-3-(isopropylamino)propan-2-ol]
HR Progression from score 1 to score 2 (FIG. 17) ([1]; 10 mg/kg/day vs. placebo): 0.56 | HR Progression from score 1 to score 3 (FIG. 19) ([1]; 10 mg/kg/day vs. placebo): 0.73 | HR Progression from score 2 to score 3 (FIG. 18) ([1]; 10 mg/kg/day vs. placebo): 1.07 | HR Progression from score 1 to score 2 (FIG. 17) [1, 5]: 1.17 | HR Progression from score 1 to score 3 (FIG. 19) [1, 5]: 1.48 | HR Progression from score 2 to score 3 (FIG. 18) [1, 5]: 1.20 | HR Progression from score 1 to score 2 (FIG. 17) ([1]; 20 mg/kg/day vs. placebo): 0.51 | HR Progression from score 1 to score 3 (FIG. 19) ([1]; 20 mg/kg/day vs. placebo): 0.47 | HR Progression from score 2 to score 3 (FIG. 18) ([1]; 20 mg/kg/day vs. placebo): 0.64 | percent survival, comparison in words (FIGS. 2-4) ([2]; 10 mg/kg/day): longer survival than those in the placebo group; also recorded: significantly superior to either placebo or S-pindolol at its preferred dose; also recorded: significantly superior to either placebo or the other compounds | HR (hazard ratio) survival vs placebo, FIG. 2 ([2]; 10 mg/kg/day, 95% CI: 0.171-0.88, p=0.0241): 0.39 | Median survival ratio vs placebo ([2]; 10 mg/kg/day, 95% CI: 0.83-1.81): 1.32 | Median survival after onset of ALS symptoms ([2]; 10 mg/kg/day, placebo 28 days): 37 days | survival, days after onset ([2]; 10 mg/kg/day, placebo 42 days): 56 days | survival improved compared to placebo treated mice ([2]; G93A mice, 10 mg/kg/day after onset of ALS): about 33% | percent survival, comparison in words (FIG. 14) ([2]; all mice, 20 mg/kg/day): longer survival than other groups | HR survival (FIG. 14) ([2]; all mice, 10 mg/kg/day vs. placebo): 0.71 | HR survival (FIG. 14) ([2]; all mice, 20 mg/kg/day vs. placebo): 0.45 | percent survival, comparison in words (FIG. 16) ([2]; female mice, 20 mg/kg/day): longer survival than other groups | HR survival (FIG. 16) ([2]; female mice, 10 mg/kg/day vs. placebo): 0.96 | HR survival (FIG. 16) ([2]; female mice, 20 mg/kg/day vs. placebo): 0.53 | percent survival, comparison in words (FIG. 15) ([2]; male mice, 20 mg/kg/day): longer survival than other groups | HR survival (FIG. 15) ([2]; male mice, 10 mg/kg/day vs. placebo): 0.46 | HR survival (FIG. 15) ([2]; male mice, 20 mg/kg/day vs. placebo): 0.39 | change in lean body mass, in words (FIG. 6) ([3]; 10 mg/kg/day, end of study): less change in lean body mass than those receiving a placebo | change in fat mass per survival day after ALS onset, in words (FIG. 13) [3, 6]: less change in fat mass than those receiving S-pindolol | change in lean body mass per survival day after ALS onset, in words (FIG. 7) [3, 6]: less change in lean body mass than those receiving S-pindolol | change of body weight per survival day after ALS onset, in words (FIG. 5) [3, 6]: body weight loss that was close to those administered S-pindolol; also recorded: less body weight loss than those in the placebo group | Wasting of lean mass reduced compared to placebo (FIG. 6) ([3]; 10 mg/kg/day, p=0.18): about 40% | Δ body weight ([3]; all mice, 10 mg/kg/d): -5.4 ± 0.43 g | Δ fat mass ([3]; all mice, 10 mg/kg/d): -1.26 ± 0.14 g | Δ lean mass ([3]; all mice, 10 mg/kg/d): -3.31 ± 0.33 g | Average Δ body weight ([3]; all mice, 10 mg/kg/d): -123 ± 11.6 mg/day | Average Δ fat mass ([3]; all mice, 10 mg/kg/d): -29.4 ± 3.7 mg/day | Average Δ lean mass ([3]; all mice, 10 mg/kg/d): -89.6 ± 9.1 mg/day | Δ body weight ([3]; all mice, 20 mg/kg/d): -5.56 ± 0.47 g | Δ fat mass ([3]; all mice, 20 mg/kg/d): -1.56 ± 0.18 g | Δ lean mass ([3]; all mice, 20 mg/kg/d): -4.78 ± 0.41 g | Average Δ body weight ([3]; all mice, 20 mg/kg/d): −99.4 ± 9.7^p=0.064 mg/day | Average Δ fat mass ([3]; all mice, 20 mg/kg/d): -29.8 ± 3.6 mg/day | Average Δ lean mass ([3]; all mice, 20 mg/kg/d): -93.3 ± 7.5 mg/day | change in fat mass, in words (FIG. 12) ([3]; end of study, p>0.5): no effect on the loss of fat mass | Δ body weight ([3]; female mice, 10 mg/kg/d): -4.51 ± 0.55 g | Δ fat mass ([3]; female mice, 10 mg/kg/d): −1.17 ± 0.21^p=0.059 g | Δ lean mass ([3]; female mice, 10 mg/kg/d): -3.99 ± 0.37 g | Average Δ body weight ([3]; female mice, 10 mg/kg/d): -103.3 ± 16.1 mg/day | Average Δ fat mass ([3]; female mice, 10 mg/kg/d): -25.9 ± 4.8 mg/day | Average Δ lean mass ([3]; female mice, 10 mg/kg/d): -69.2 ± 10.8 mg/day | Δ body weight ([3]; female mice, 20 mg/kg/d): -4.57 ± 0.55 g | Δ fat mass ([3]; female mice, 20 mg/kg/d): -1.29 ± 0.17 g | Δ lean mass ([3]; female mice, 20 mg/kg/d): -3.97 ± 0.49 g | Average Δ body weight ([3]; female mice, 20 mg/kg/d): -82.0 ± 13.6 mg/day | Average Δ fat mass ([3]; female mice, 20 mg/kg/d): −26.8 ± 4.4^+ mg/day | Average Δ lean mass ([3]; female mice, 20 mg/kg/d): 90.7 ± 10.9 mg/day | Δ body weight ([3]; male mice, 10 mg/kg/d): -6.57 ± 0.57 g | Δ fat mass ([3]; male mice, 10 mg/kg/d): -1.44 ± 0.19 g | Δ lean mass ([3]; male mice, 10 mg/kg/d): -3.67 ± 0.49 g | Average Δ body weight ([3]; male mice, 10 mg/kg/d): -150.3 ± 14.5 mg/day | Average Δ fat mass ([3]; male mice, 10 mg/kg/d): -33.6 ± 5.7 mg/day | Average Δ lean mass ([3]; male mice, 10 mg/kg/d): -115.1 ± 13.9 mg/day | Δ body weight ([3]; male mice, 20 mg/kg/d): -6.36 ± 0.67 g | Δ fat mass ([3]; male mice, 20 mg/kg/d): -1.78 ± 0.28 g | Δ lean mass ([3]; male mice, 20 mg/kg/d): -5.34 ± 0.56 g | Average Δ body weight ([3]; male mice, 20 mg/kg/d): -115.7 ± 12.6 mg/day | Average Δ fat mass ([3]; male mice, 20 mg/kg/d): -32.1 ± 5.4 mg/day | Average Δ lean mass ([3]; male mice, 20 mg/kg/d): -95.8 ± 10.6 mg/day | gastrocnemius weight over days after onset, in words (FIG. 9) ([4]; 10 mg/kg/day): steady | tibialis anterior muscle weight over days after onset, in words (FIG. 11) ([4]; 10 mg/kg/day): steady | correlation R of tibialis anterior muscle weight with days after onset (=survival), FIG. 11 ([4]; 10 mg/kg/day, p=0.72, placebo R: −0.67): 0.15 | correlation R of gastrocnemius weight with days after onset (=survival), FIG. 9 ([4]; 10 mg/kg/day, p=0.94, placebo R: −0.56): −0.03 | BAT (brown adipose tissue) ([4]; all mice, 10 mg/kg/d): 46.8 ± 3.5 mg | EDL (extensor digitorum longus) ([4]; all mice, 10 mg/kg/d): 7.18 ± 0.34 mg | soleus ([4]; all mice, 10 mg/kg/d): 5.89 ± 0.35 mg | Heart ([4]; all mice, 10 mg/kg/d): 108.6 ± 5.8 mg | gastrocnemius ([4]; all mice, 10 mg/kg/d): 55.1 ± 4.0 mg | BAT (brown adipose tissue) ([4]; all mice, 20 mg/kg/d): 43.7 ± 2.3 mg | EDL (extensor digitorum longus) ([4]; all mice, 20 mg/kg/d): 7.791 ± 0.29*^+++ mg | soleus ([4]; all mice, 20 mg/kg/d): 6.42 ± 0.39 mg | Heart ([4]; all mice, 20 mg/kg/d): 104.1 ± 3.5 mg | gastrocnemius ([4]; all mice, 20 mg/kg/d): 50.1 ± 2.9 mg | BAT (brown adipose tissue) ([4]; female mice, 10 mg/kg/d): 39.4 ± 4.2 mg | EDL (extensor digitorum longus) ([4]; female mice, 10 mg/kg/d): 7.03 ± 0.51 mg | soleus ([4]; female mice, 10 mg/kg/d): 5.71 ± 0.48 mg | Heart ([4]; female mice, 10 mg/kg/d): 92.3 ± 3.2^p=0.064 mg | gastrocnemius ([4]; female mice, 10 mg/kg/d): 50.5 ± 4.0*^p=0.060 ^vs propanolol mg | BAT (brown adipose tissue) ([4]; female mice, 20 mg/kg/d): 37.1 ± 2.9 mg | EDL (extensor digitorum longus) ([4]; female mice, 20 mg/kg/d): 7.29 ± 0.42*^$ mg | soleus ([4]; female mice, 20 mg/kg/d): 6.15 ± 0.30 mg | Heart ([4]; female mice, 20 mg/kg/d): 92.8 ± 3.0 mg | gastrocnemius ([4]; female mice, 20 mg/kg/d): 46.2 ± 3.9 mg | BAT (brown adipose tissue) ([4]; male mice, 10 mg/kg/d): 53.2 ± 5.0 mg | EDL (extensor digitorum longus) ([4]; male mice, 10 mg/kg/d): 7.28 ± 0.47 mg | soleus ([4]; male mice, 10 mg/kg/d): 6.04 ± 0.53 mg | Heart ([4]; male mice, 10 mg/kg/d): 122.6 ± 8.8 mg | gastrocnemius ([4]; male mice, 10 mg/kg/d): 59.1 ± 6.6 mg | BAT (brown adipose tissue) ([4]; male mice, 20 mg/kg/d): 46.5 ± 3.0 mg | EDL (extensor digitorum longus) ([4]; male mice, 20 mg/kg/d): 8.15 ± 0.39^$$$ mg | soleus ([4]; male mice, 20 mg/kg/d): 6.58 ± 0.61 mg | Heart ([4]; male mice, 20 mg/kg/d): 112.4 ± 4.5 mg | gastrocnemius ([4]; male mice, 20 mg/kg/d): 53.1 ± 4.3 mg

— patent US12303474B2, “S-enantiomerically enriched compositions of beta blockers for treating amyotrophic lateral sclerosis” (priority 2013, dated 2025)
